Test results from ChEMBL document CHEMBL5036339, “Synthesis and biological evaluation of indole-based peptidomimetics as antibacterial agents against Gram-positive bacteria” (Eur J Med Chem, 2021).
Values after ≈ are worked out from the molar mass of the structure shown. Active and inactive are the calls of the source. The calls are words filed in the database; no cut-off is given here.

Experiments:
[1] = tested on: Staphylococcus aureus; assay: Antibacterial activity against methicillin-resistant Staphylococcus aureus N315 assessed as reduction in bacterial growth; format: functional
[2] = tested on: Staphylococcus aureus; assay: Antibacterial activity against Staphylococcus aureus ATCC29213 assessed as reduction in bacterial growth; format: functional
[3] = tested on: Staphylococcus aureus; assay: Antibacterial activity against methicillin-resistant Staphylococcus aureus NCTC 10442 assessed as reduction in bacterial growth; format: functional
[4] = tested on: Staphylococcus aureus; assay: Bactericidal activity against Staphylococcus aureus NCTC 10442 assessed as log reduction in bacterial growth at 4X MIC measured within 0.5 hr by time-kill kinetic assay; format: functional; conditions: time hrs <=0.5
[5] = tested on: Staphylococcus aureus; assay: In vivo antibacterial activity against Staphylococcus aureus ATCC29213 in mouse bacterial keratitis model assessed as log reduction in bacterial load in infected cornea at 5%,TOP after 24 hour infection; format: functional, organism-based
[6] = tested on: Escherichia coli; assay: Antibacterial activity against Escherichia coli ATCC25922 assessed as reduction in bacterial growth; format: functional
[7] = Hemolytic activity in rabbit erythrocytes assessed as concentration required to cause 50% hemolysis; format: ADME, cell-based, Oryctolagus cuniculus, Erythrocyte
[8] = tested on: Staphylococcus aureus; assay: Induction of drug resistance in Staphylococcus aureus ATCC29213 assessed as reduction in bacterial growth at 0.5 times MIC measured after 24 hr; format: functional, organism-based

Structure (SMILES) | MIC [1] [µg/mL] | MIC [2] [µg/mL] | MIC [3] [µg/mL] | log reduction [4] [log10 CFU/mL] | Activity [5] | MIC [6] [µg/mL] | HC50 [7] [µg/mL] | Activity [8]
CN[C@H](CC(C)C)C(=O)N[C@H]1C(=O)N[C@@H](CC(N)=O)C(=O)N[C@H]2C(=O)N[C@H]3C(=O)N[C@H](C(=O)N[C@H](C(=O)O)c4cc(O)cc(O)c4-c4cc3ccc4O)[C@H](O)c3ccc(c(Cl)c3)Oc3cc2cc(c3O[C@@H]2O[C@H](CO)[C@@H](O)[C@H](O)[C@H]2O[C@H]2C[C@](C)(N)[C@H](O)[C@H](C)O2)Oc2ccc(cc2Cl)[C@H]1O [VANCOMYCIN] | 1.56 (≈ 1.08 µM) | 0.78 (≈ 0.538 µM) | 1.56 (≈ 1.08 µM) | 0.5 | Active |  |  | 
COC(=O)[C@H](CCCNC(=N)N)NC(=O)Cc1cn(C/C=C(\C)CCC=C(C)C)c2ccccc12 | 3.12 (≈ 6.49 µM) | 3.12 (≈ 6.49 µM) | 3.12 (≈ 6.49 µM) |  |  | 12.5 (≈ 26 µM) | 58.8 | 
CC(C)=CCC/C(C)=C/Cn1cc(CC(=O)NCCCN2CCCC2)c2ccccc21 | 6.25 (≈ 14.8 µM) | 6.25 (≈ 14.8 µM) | 6.25 (≈ 14.8 µM) |  |  | 50 (≈ 119 µM) | 47.6 | 
CC(C)=CCn1cc(CC(=O)NCCCN)c2ccccc21 | > 50 | > 50 | > 50 |  |  | > 100 | > 200 | 
CC(C)=CCC/C(C)=C/Cn1cc(CC(=O)NCCCNC(=N)N)c2ccccc21 | 1.56 (≈ 3.81 µM) | 1.56 (≈ 3.81 µM) | 1.56 (≈ 3.81 µM) |  |  | 12.5 (≈ 30.5 µM) | 733 | 
NC[C@H]1O[C@H](O[C@H]2[C@H](O)[C@@H](O[C@H]3O[C@H](CO)[C@@H](O)[C@H](N)[C@H]3O)[C@H](N)C[C@@H]2N)[C@H](O)[C@@H](O)[C@@H]1O [KANAMYCIN] |  |  |  |  |  | 6.25 (≈ 12.9 µM) |  | 
CCCCN(CCCC)CCCNC(=O)Cc1cn(C/C=C(\C)CCC=C(C)C)c2ccccc12 | 3.12 (≈ 6.51 µM) | 3.12 (≈ 6.51 µM) | 3.12 (≈ 6.51 µM) |  |  | > 100 | 72.3 | 
CC(C)=CCC/C(C)=C/Cn1cc(CC(=O)N[C@@H](CCCNC(=N)N)C(N)=O)c2ccccc21 | 3.12 (≈ 6.7 µM) | 3.12 (≈ 6.7 µM) | 3.12 (≈ 6.7 µM) |  |  | 25 (≈ 53.6 µM) | 119 | 
CC(C)=CCC/C(C)=C/Cn1cc(CC(=O)NCCCN)c2ccccc21 | 6.25 (≈ 17 µM) | 12.5 (≈ 34 µM) | 12.5 (≈ 34 µM) |  |  | 12.5 (≈ 34 µM) | 178 | 
CCn1cc(C(=O)O)c(=O)c2cc(F)c(N3CCNCC3)cc21 |  |  |  |  |  |  |  | Active
CCOC(=O)Cc1cn(C/C=C(\C)CCC=C(C)C)c2ccccc12 | > 50 | > 50 | > 50 |  |  | > 100 | > 200 | 
CC(C)=CCC/C(C)=C/Cn1cc(CC(=O)NCCN(CCN)CCN)c2ccccc21 | 1.56 (≈ 3.55 µM) | 1.56 (≈ 3.55 µM) | 1.56 (≈ 3.55 µM) |  |  | 25 (≈ 56.9 µM) | 208 | 
COC(=O)[C@H](CCCNC(=N)N)NC(=O)Cc1cn(CC=C(C)C)c2ccccc12 | 50 (≈ 121 µM) | 50 (≈ 121 µM) | 50 (≈ 121 µM) |  |  | > 100 | > 200 | 
COC(=O)[C@H](CCCNC(=N)N)NC(=O)[C@H](CCCNC(=N)N)NC(=O)[C@H](CCCNC(=N)N)NC(=O)Cc1cn(C/C=C(\C)CCC=C(C)C)c2ccccc12 | 1.56 (≈ 1.96 µM) | 3.12 (≈ 3.94 µM) | 1.56 (≈ 1.96 µM) |  |  | 50 (≈ 63 µM) | > 200 | 
CC(C)=CCn1cc(CC(=O)NCCCNC(=N)N)c2ccccc21 | 50 (≈ 146 µM) | 50 (≈ 146 µM) | 50 (≈ 146 µM) |  |  | > 100 | > 200 | 
COC(=O)[C@H](CCCNC(=N)N)NC(=O)[C@H](CCCNC(=N)N)NC(=O)Cc1cn(C/C=C(\C)CCC=C(C)C)c2ccccc12 | 3.12 (≈ 4.9 µM) | 3.12 (≈ 4.9 µM) | 1.56 (≈ 2.45 µM) |  |  | 50 (≈ 78.4 µM) | > 200 | 
CCCCCCCCCCn1cc(CC(=O)NCCN(CCN)CCN)c2ccccc21 | 1.56 (≈ 3.52 µM) | 1.56 (≈ 3.52 µM) | 1.56 (≈ 3.52 µM) |  |  | 12.5 (≈ 28.2 µM) | 95.9 | 
CCOC(=O)Cc1c[nH]c2ccccc12 | > 50 | > 50 | > 50 |  |  | > 100 | > 200 | 
C=CCCCCCn1cc(CC(=O)NCCN(CCN)CCN)c2ccccc21 | 12.5 (≈ 31.3 µM) | 12.5 (≈ 31.3 µM) | 25 (≈ 62.6 µM) |  |  | > 50 | 140 | 
CC(C)=CCC/C(C)=C/Cn1cc(CC(=O)N[C@@H](CCCNC(=N)N)C(=O)N[C@@H](CCCNC(=N)N)C(N)=O)c2ccccc21 | 3.12 (≈ 5.02 µM) | 3.12 (≈ 5.02 µM) | 3.12 (≈ 5.02 µM) |  |  | 50 (≈ 80.3 µM) | > 200 | 
CC(C)=CCC/C(C)=C/Cn1cc(CC(=O)NCCCN(C)C)c2ccccc21 | 3.12 (≈ 7.9 µM) | 6.25 (≈ 15.8 µM) | 6.25 (≈ 15.8 µM) |  |  | 12.5 (≈ 31.6 µM) | 55.1 | 
CC(C)=CCn1cc(CC(=O)N[C@@H](CCCNC(=N)N)C(N)=O)c2ccccc21 | > 50 | > 50 | > 50 |  |  | > 100 | > 200 | 
COC(=O)[C@H](Cc1c[nH]cn1)NC(=O)Cc1cn(C/C=C(\C)CCC=C(C)C)c2ccccc12 | > 50 | > 50 | > 50 |  |  | > 100 | > 200 | 
